Results: patent publication US20250109140A1, “5-[5-(PIPERIDIN-4-YL)THIENO[3,2-C]PYRAZOL-2-YL]INDAZOLE DERIVATIVES AND RELATED COMPOUNDS AS MODULATORS FOR SPLICING NUCLEIC ACIDS AND FOR THE TREATMENT OF PROLIFERATIVE DISEASES” (REMIX THERAPUTICS INC., priority 2022, published 2025)
Counter-ions that a name gives are not always drawn. Like-named read-outs stand apart in the source and are kept apart here.

What was measured:
Format in all cases: cell-based
HTT mRNA = test: Splicing RT-qPCR assay, HTT canonical (CJ) and alternative (AJ) junction mRNA; details: Homo sapiens; for EC50: AC50 = 50% response in AJ mRNA increase
Method: (§1) Compounds described herein were used to modulate RNA transcript abundance in cells. The expression of a target mRNA was measured by detecting the formation of an exon-exon junction in the canonical transcript (CJ). A compound mediated exon-inclusion event was detected by observing an increase in formation of a new junction with an alternative exon (AJ). Real-time qPCR assays were used to detect these splicing switches and interrogate the potency of various compounds towards different target genes. A high-throughput real time quantitative PCR (RT-qPCR) assay was developed to measure these two isoforms of the mRNA (CJ and AJ) for exemplary genes, such as HTT, SMN2, and MYB, together with a control housekeeping gene, GAPDH or GUSB or PPIA, used for normalization. Briefly, the A673 or K562 cell line was treated with various compounds described herein (e.g., compounds of Formula (I)). After treatment, the levels of the HTT, MYB, or SMN2 mRNA targets were determined from each sample of cell lysate by cDNA synthesis followed by qPCR.
(§2) The A673 cell line was cultured in DMEM with 10% FBS. Cells were diluted with full growth media and plated in a 96-well plate (15,000 cells in 100 ul media per well). The plate was incubated at 37° C. with 5% CO2 for 24 hours to allow cells to adhere. An 11-point 3-fold serial dilution of the compounds was made in DMSO then diluted in media in an intermediate plate. Compounds were transferred from the intermediate plate to the cell plate with the top dose at a final concentration of 10 uM in the well. Final DMSO concentration was kept at or below 0.25%. The cell plate was returned to the incubator at 37° C. with 5% CO2 for an additional 24 hours.
(§3) The K562 cell line was cultured in IMDM with 10% FBS. For K562, cells were diluted with full growth media and plated in either a 96-well plate (50,000 cells in 50 uL media per well) or a 384-well plate (8,000-40,000 cells in 45 uL media per well). An 11-point 3-fold serial dilution of the compounds were made in DMSO then diluted in media in an intermediate plate. Compound was transferred from the intermediate plate to the cell plate with the top dose at a final concentration of 10 uM in the well. Final DMSO concentration was kept at or below 0.25%. Final volume was 100 uL for 96-well plate and 50 uL for 384-well plate. The cell plate was then placed in an incubator at 37° C. with 5% CO2 for 24 hours.
(§4) The cells were then gently washed with 50 uL-100 uL cold PBS before proceeding to addition of lysis buffer. 30 uL-50 uL of room temperature lysis buffer with DNAse I (and optionally RNAsin) was added to each well. Cells were shaken/mixed thoroughly at room temperature for 5-10 minutes for lysis to take place and then 3 uL-5 uL of room temperature stop solution was added and wells were shaken/mixed again. After 2-5 minutes, the cell lysate plate was transferred to ice for RT-qPCR reaction setup. The lysates could also be frozen at-80° C. for later use.
(§5) In some cases, a direct lysis buffer was used. An appropriate volume of 3× lysis buffer (10 mM Tris, 150 mM NaCl, 1.5%-2.5% Igepal and 0.1-1 U/uL RNAsin, pH 7.4) was directly added to either K562 or A673 cells in media and mixed by pipetting 3 times. The plates were then incubated at room temperature with shaking/rocking for 20-50 minutes to allow for lysis to take place. After this time, the cell lysate plate was transferred to ice to set up for the RT-qPCR reactions. The lysates could also be frozen at −80° C. for later use.
(§6) To set up 10 uL RT-qPCR reactions, cell lysates were transferred to 384-well qPCR plates containing the master mix according to the table below. The plates were sealed, gently vortexed, and spun down before the run. The volumes were adjusted accordingly in some instances where the reaction was carried in 20 μL. The table below summarizes the components of the RT-qPCR reactions:
(§7) The RT-qPCR reaction was performed using a QuantStudio (ThermoFisher) under the following fast cycling conditions. […]

MYB mRNA = test: Splicing RT-qPCR assay, MYB canonical (CJ) and alternative (AJ) junction mRNA; details: Homo sapiens; for EC50: AC50 = 50% response in AJ mRNA increase
Method: as §1, §2, §3, §4, §5, §6, §7

SMN2 mRNA = test: Splicing RT-qPCR gene panel, SMN2 canonical junction (CJ) mRNA; details: Homo sapiens; Table 8; larger gene panel, decrease in CJ mRNA levels
Method: as §1, §2, §3, §4, §5, §6, §7

Target C mRNA = test: Splicing RT-qPCR gene panel, Target C canonical junction (CJ) mRNA; details: Homo sapiens; Table 8; larger gene panel, decrease in CJ mRNA levels
Method: as §1, §2, §3, §4, §5, §6, §7

[1] = Table 7, RT-qPCR, A673 or K562 cells, 24 hours treatment
[2] = Table 7, IC50 = 50% response in CJ mRNA decrease, RT-qPCR, A673 or K562 cells, 24 hours treatment, read-out: HTT CJ
[3] = Table 8, larger gene panel, decrease in CJ mRNA levels, read-out: HTT CJ IC50
[4] = Table 7, IC50 = 50% response in CJ mRNA decrease, RT-qPCR, A673 or K562 cells, 24 hours treatment, read-out: MYB CJ
[5] = Table 8, larger gene panel, decrease in CJ mRNA levels, read-out: MYB CJ IC50

EC50 (HTT mRNA; [1]) | IC50 (HTT mRNA; [2]) | IC50 (HTT mRNA; [3]) | EC50 (MYB mRNA; [1]) | IC50 (MYB mRNA; [4]) | IC50 (MYB mRNA; [5]) | IC50 (SMN2 mRNA) | IC50 (Target C mRNA) | Compound
< 100 nM | 100 to 1000 nM | < 100 nM | 100 to 1000 nM | 100 to 1000 nM | 100 to 1000 nM | < 100 nM | 100 to 1000 nM | Cn1cc2cc(-c3cc4sc(C5CCNCC5)nc4s3)cc(F)c2n1 [Compound 124, 7-fluoro-2-methyl-5-[2-(piperidin-4-yl)thieno[2,3-d][1,3]thiazol-5-yl]indazole]
100 to 1000 nM | 100 to 1000 nM | 100 to 1000 nM | 100 to 1000 nM | 1000 to 10000 nM | 100 to 1000 nM | 100 to 1000 nM | 1000 to 10000 nM | Cc1cn2nc(-c3cc4sc(C5CCNCC5)nc4s3)cc(C)c2n1 [Compound 125, 4-(5-[2,8-dimethylimidazo[1,2-b]pyridazin-6-yl]thieno [2,3-d][1,3]thiazol-2-yl) piperidine]
100 to 1000 nM | 100 to 1000 nM | 100 to 1000 nM | 1000 to 10000 nM | 1000 to 10000 nM | 1000 to 10000 nM | 100 to 1000 nM | 1000 to 10000 nM | Cc1nc2c(F)cc(-c3nc4sc(C5CCNCC5)cc4s3)cc2s1 [Compound 126]
1000 to 10000 nM | 1000 to 10000 nM | 1000 to 10000 nM | 1000 to 10000 nM | 1000 to 10000 nM | 1000 to 10000 nM | 1000 to 10000 nM | 1000 to 10000 nM | Cn1cc2ccc(-c3nc4sc(C5CCNCC5)cc4s3)cc2n1 [Compound 127, 2-methyl-6-[5-(piperidin-4-yl)thieno [2,3-d][1,3]thiazol-2-yl]indazole hydrochloride]
1000 to 10000 nM | 1000 to 10000 nM | 1000 to 10000 nM | 1000 to 10000 nM | 1000 to 10000 nM | 1000 to 10000 nM | 100 to 1000 nM | 1000 to 10000 nM | CC1CN(c2cc3sc(-c4cc(F)c5nn(C)cc5c4)nc3s2)CCN1C (stereo not shown) [Compound 128, 5-[5-(3,4-dimethylpiperazin-1-yl)thieno[2,3-d][1,3]thiazol-2-yl]-7-fluoro-2-methylindazole]
< 100 nM | < 100 nM | < 100 nM | < 100 nM | < 100 nM | < 100 nM | < 100 nM | < 100 nM | Cc1cn2cc(-c3nc4sc(C5CCNCC5)cc4s3)cc(F)c2n1 [Compound 130, 4-(2-[8-fluoro-2-methylimidazo[1,2-a]pyridin-6-yl]thieno[2,3-d][1,3]thiazol-5-yl)piperidine hydrochloride]
1000 to 10000 nM | 1000 to 10000 nM | 1000 to 10000 nM | 1000 to 10000 nM | 1000 to 10000 nM | 1000 to 10000 nM | 1000 to 10000 nM | 1000 to 10000 nM | Cn1cc2c(F)cc(-c3nc4sc(C5CCNCC5)cc4s3)cc2n1 [Compound 131, 4-fluoro-2-methyl-6-[5-(piperidin-4-yl)thieno[2,3-d][1,3]thiazol-2-yl]indazole]
< 100 nM | 100 to 1000 nM | < 100 nM | 100 to 1000 nM | 100 to 1000 nM | 100 to 1000 nM | 100 to 1000 nM | 100 to 1000 nM | Cc1nc2c(F)cc(-c3nc4sc(C5CCNCC5)cc4s3)cc2o1 [Compound 132, 4-fluoro-2-methyl-6-[5-(piperidin-4-yl)thieno[2,3-d][1,3]thiazol-2-yl]-1,3-benzoxazole]
100 to 1000 nM | 100 to 1000 nM | 100 to 1000 nM | 100 to 1000 nM | 100 to 1000 nM | 100 to 1000 nM | 100 to 1000 nM | 100 to 1000 nM | Cc1cn2nc(-c3nc4sc(C5CCNCC5)cc4s3)cc2c(C)n1 [Compound 133, 4-(2-[4,6-dimethylpyrazolo[1,5-a]pyrazin-2-yl]thieno[2,3-d][1,3]thiazol-5-yl)piperidine]
< 100 nM | 100 to 1000 nM | < 100 nM | 100 to 1000 nM | 100 to 1000 nM | 100 to 1000 nM | < 100 nM | 100 to 1000 nM | Cn1cc2cc(-c3nc4sc(N5CCNCC5)cc4s3)cc(F)c2n1 [Compound 134, 7-fluoro-2-methyl-5-[5-(piperazin-1-yl)thieno[2,3-d][1,3]thiazol-2-yl]indazole]
100 to 1000 nM | 100 to 1000 nM | 100 to 1000 nM | 100 to 1000 nM | 100 to 1000 nM | 100 to 1000 nM | < 100 nM | 100 to 1000 nM | CC1CN(c2cc3sc(-c4cc(F)c5nn(C)cc5c4)nc3s2)CCN1 (stereo not shown) [Compound 135, 7-fluoro-2-methyl-5-[5-(3-methylpiperazin-1-yl)thieno[2,3-d][1,3]thiazol-2-yl]indazole]
> 10000 nM | > 10000 nM | > 10000 nM | 100 to 1000 nM | 1000 to 10000 nM | 100 to 1000 nM | 100 to 1000 nM | > 10000 nM | Cn1cc2cc(-c3nc4sc(N5CCNC6(CC6)C5)cc4s3)cc(F)c2n1 [Compound 136, 5-(5-[4,7-diazaspiro[2.5]octan-7-yl]thieno[2,3-d][1,3]thiazol-2-yl)-7-fluoro-2-methylindazole]
100 to 1000 nM | 100 to 1000 nM | 100 to 1000 nM | 100 to 1000 nM | 100 to 1000 nM | 100 to 1000 nM | < 100 nM | 100 to 1000 nM | CCNC1CCN(c2cc3sc(-c4cc(F)c5nn(C)cc5c4)nc3s2)CC1 [Compound 137, N-ethyl-1-[2-(7-fluoro-2-methylindazol-5-yl)thieno[2,3-d][1,3]thiazol-5-yl]piperidin-4-amine]
< 100 nM | < 100 nM | < 100 nM | < 100 nM | < 100 nM | < 100 nM | < 100 nM | < 100 nM | Cc1cn2cc(-c3nc4sc(C5CCNCC5)cc4s3)cc(Cl)c2n1 [Compound 139]
< 100 nM | < 100 nM | < 100 nM | 100 to 1000 nM | 100 to 1000 nM | 100 to 1000 nM | < 100 nM | 100 to 1000 nM | Cc1cn2cc(-c3nc4sc(C5CCNCC5)cc4s3)cc(C)c2n1 [Compound 140, 4-(2-[2,8-dimethylimidazo[1,2-a]pyridin-6-yl]thieno[2,3-d][1,3]thiazol-5-yl)piperidine hydrochloride]
100 to 1000 nM | 100 to 1000 nM | 100 to 1000 nM | 100 to 1000 nM | 100 to 1000 nM | 100 to 1000 nM | < 100 nM | 1000 to 10000 nM | CN1CCN(c2cc3sc(-c4cc(F)c5nn(C)cc5c4)nc3s2)CC1 [Compound 141, 7-fluoro-2-methyl-5-[5-(4-methylpiperazin-1-yl)thieno[2,3-d][1,3]thiazol-2-yl]indazole]
100 to 1000 nM | 100 to 1000 nM | 100 to 1000 nM | 100 to 1000 nM | 100 to 1000 nM | 100 to 1000 nM | < 100 nM | 1000 to 10000 nM | Cn1cc2cc(-c3nc4sc(N5CCNC(C)(C)C5)cc4s3)cc(F)c2n1 [Compound 142, 5-[5-(3,3-dimethylpiperazin-1-yl)thieno[2,3-d][1,3]thiazol-2-yl]-7-fluoro-2-methylindazole]
